Results published in ChEMBL document CHEMBL1201862, “PubChem BioAssay data set” (2004).
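A five-concentration, 48-hour dose response in 96-well plates underlies each endpoint, interpolated linearly between surrounding concentrations. GI50 is the concentration that inhibits growth by half.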 Active and inactive are the calls of the source. Rule as the data show it: active = GI50 up to about 1.1 µM and inactive = higher.

Assays:
Assay in all cases: NCI-60 cell line screen, 48 h
SF-295 = system: SF-295
NCI-H226 = system: NCI-H226
SK-MEL-2 = system: SK-MEL-2
MCF7 = system: MCF7
MOLT-4 = system: MOLT-4
SW-620 = system: SW-620
SNB-75 = system: SNB-75
CAKI-1 = system: CAKI-1
HOP-62 = system: HOP-62
NCI-H460 = system: NCI-H460
MDA-N = system: MDA-N
HCC 2998 = system: HCC 2998
786-0 = system: 786-0
M14 = system: M14
MDA-MB-435 = system: MDA-MB-435
SR = system: SR
HT-29 = system: HT-29
Hs-578T = system: Hs-578T
UO-31 = system: UO-31
M19-MEL = system: M19-MEL

Compound | GI50 (SF-295) | GI50 (NCI-H226) | GI50 (SK-MEL-2) | GI50 (MCF7) | GI50 (MOLT-4) | GI50 (SW-620) | GI50 (SNB-75) | GI50 (CAKI-1) | GI50 (HOP-62) | GI50 (NCI-H460) | GI50 (MDA-N) | GI50 (HCC 2998) | GI50 (786-0) | GI50 (M14) | GI50 (MDA-MB-435) | GI50 (SR) | GI50 (HT-29) | GI50 (Hs-578T) | GI50 (UO-31) | GI50 (M19-MEL)
O=[N+]([O-])c1ccccc1OCCOc1ccccc1[N+](=O)[O-] | > 100 µM (inactive) | > 100 µM (inactive) | > 100 µM (inactive) | > 100 µM (inactive) | > 100 µM (inactive) | > 100 µM (inactive) | > 100 µM (inactive) | > 100 µM (inactive) | > 100 µM (inactive) | > 100 µM (inactive) | > 100 µM (inactive) | > 100 µM (inactive) | > 100 µM (inactive) | > 100 µM (inactive) | > 100 µM (inactive) | > 100 µM (inactive) | > 100 µM (inactive) | > 100 µM (inactive) | > 100 µM (inactive) | 
O=C(N/N=C/C=C/c1ccccc1)c1ccccc1Nc1ccccc1C(=O)N/N=C/C=C/c1ccccc1 | 27.5 µM (inactive) | > 100 µM (inactive) | 59.4 µM (inactive) | > 100 µM (inactive) | 1.92 µM (inactive) | > 100 µM (inactive) | 21.4 µM (inactive) | > 100 µM (inactive) | 3.58 µM (inactive) | 26.5 µM (inactive) | > 100 µM (inactive) | > 100 µM (inactive) | > 100 µM (inactive) | 48 µM (inactive) | > 100 µM (inactive) | 12.8 µM (inactive) | > 100 µM (inactive) | 41.1 µM (inactive) | > 100 µM (inactive) | 
C=C1C(=O)O[C@@H]2C[C@@]3(C)CCCC(=C)[C@@H]3C[C@H]12.C=C1C(=O)O[C@@H]2C[C@@]3(C)CCC[C@H](C)C3=C[C@H]12 | 11.5 µM (inactive) | 5.3 µM (inactive) | 2.09 µM (inactive) | 1.73 µM (inactive) | 1.34 µM (inactive) | 1.64 µM (inactive) | 1.91 µM (inactive) | 1.69 µM (inactive) | 2.3 µM (inactive) | 3.75 µM (inactive) | 2.04 µM (inactive) | 5.85 µM (inactive) | 1.43 µM (inactive) | 1.42 µM (inactive) | 1.54 µM (inactive) | 0.494 µM (active) | 2.12 µM (inactive) | 2.92 µM (inactive) | 1.59 µM (inactive) | 
COC(=O)C1=C(C(=O)OC)C2OC1c1cc3ccccc3cc12 | 18.8 µM (inactive) | 5.15 µM (inactive) | 15.4 µM (inactive) | 8.89 µM (inactive) | 1.54 µM (inactive) | 1.96 µM (inactive) | 23.3 µM (inactive) | 2.05 µM (inactive) | 17.6 µM (inactive) | 22.2 µM (inactive) | 6.62 µM (inactive) | 6.34 µM (inactive) | 1.76 µM (inactive) | 2.1 µM (inactive) | 7.38 µM (inactive) | 1.88 µM (inactive) | 6.3 µM (inactive) | 18.2 µM (inactive) | 1.54 µM (inactive) | 
Nc1nc(OCC2CCCCC2)c2nc[nH]c2n1 | 17.7 µM (inactive) | 9.59 µM (inactive) | 4.5 µM (inactive) | 0.957 µM (active) | 8.47 µM (inactive) | 23.3 µM (inactive) | 16.1 µM (inactive) | 7.24 µM (inactive) | 13.4 µM (inactive) | 8.38 µM (inactive) | 13.1 µM (inactive) | 17.5 µM (inactive) | 17 µM (inactive) | 8.73 µM (inactive) | 13.7 µM (inactive) | 6.85 µM (inactive) | 12.3 µM (inactive) | 8.39 µM (inactive) | 7.18 µM (inactive) | 
O=C(OCCN=c1c2ccccc2ccc2ccccc12)c1ccccc1 | > 100 µM (inactive) | > 100 µM (inactive) | > 100 µM (inactive) | > 100 µM (inactive) | > 100 µM (inactive) | 74 µM (inactive) | > 100 µM (inactive) | 83.4 µM (inactive) | 64.6 µM (inactive) | 63.2 µM (inactive) | > 100 µM (inactive) | 72.8 µM (inactive) | 87.7 µM (inactive) | > 100 µM (inactive) | > 100 µM (inactive) | > 100 µM (inactive) | 64 µM (inactive) | 40.3 µM (inactive) | 56 µM (inactive) | 
CCOC(=O)C1(CC)CCCCC(=O)N1 (stereo unspecified) | > 100 µM (inactive) |  |  |  |  | > 100 µM (inactive) |  | > 100 µM (inactive) | > 100 µM (inactive) | > 100 µM (inactive) |  | > 100 µM (inactive) | > 100 µM (inactive) | > 100 µM (inactive) |  |  | > 100 µM (inactive) |  | > 100 µM (inactive) | > 100 µM (inactive)
COC(=O)C1(Cc2ccc3c(c2)CCC3)Cc2ccccc2C1O (stereo unspecified) | 17.5 µM (inactive) | 17.3 µM (inactive) | 12.8 µM (inactive) | 24.3 µM (inactive) | 8.22 µM (inactive) | 17.3 µM (inactive) | > 10 µM (inactive) | 23.8 µM (inactive) | 22.9 µM (inactive) | 18.6 µM (inactive) | 3.36 µM (inactive) | 15.3 µM (inactive) | 16.3 µM (inactive) | 19.6 µM (inactive) | 18.7 µM (inactive) | 26.4 µM (inactive) | 16.7 µM (inactive) | 20 µM (inactive) | 15.7 µM (inactive) | 
O=C1/C(=C/c2ccc(Cl)cc2)N=C(c2ccccc2)N1c1nc2ccccc2s1 | 40.4 µM (inactive) | 49.7 µM (inactive) | 28.3 µM (inactive) | 40.1 µM (inactive) | 0.548 µM (active) | 64 µM (inactive) | 77.3 µM (inactive) | 58.9 µM (inactive) | > 100 µM (inactive) | 57.4 µM (inactive) | 39 µM (inactive) | 42.7 µM (inactive) | > 100 µM (inactive) | 69.8 µM (inactive) | 53 µM (inactive) | 0.0537 µM (active) | 64.1 µM (inactive) | 20 µM (inactive) | 37.3 µM (inactive) | 
O=C(/C=C/c1ccccc1)c1cc(Br)ccc1O | 16.9 µM (inactive) | 12.9 µM (inactive) | 21.4 µM (inactive) | 10.8 µM (inactive) | 15.2 µM (inactive) | 21 µM (inactive) | 15.4 µM (inactive) | 15.8 µM (inactive) | 20.1 µM (inactive) | 17.9 µM (inactive) | 15 µM (inactive) | 17.5 µM (inactive) | 13.9 µM (inactive) | 24 µM (inactive) | 15.6 µM (inactive) | 2.09 µM (inactive) | 16.6 µM (inactive) | 21.2 µM (inactive) | 10.9 µM (inactive) | 
CCOC(=O)CN1CC(C2=C(O)CN(CC(=O)OCC)C2=O)=CC1=O | > 100 µM (inactive) | > 100 µM (inactive) | > 100 µM (inactive) | > 100 µM (inactive) | > 100 µM (inactive) | > 100 µM (inactive) | > 100 µM (inactive) | > 100 µM (inactive) | > 100 µM (inactive) | > 100 µM (inactive) | > 100 µM (inactive) | > 100 µM (inactive) | > 100 µM (inactive) | > 100 µM (inactive) | > 100 µM (inactive) | > 100 µM (inactive) | > 100 µM (inactive) | > 100 µM (inactive) | > 100 µM (inactive) | 
